The values that follow come from US20030113312A1, “Skin barrier function and cohesion through enhanced stratum corneum acidification” (The Regents of the University of California, priority 2001, published 2003).

The subject of data set [1] is hairless mice skin (stratum corneum). Description: Skin surface pH after topical treatment or buffer exposure. In kind it is in vivo, mouse. Conditions: for pH of the stratum corneum: BPB alone, three days.
Description: Animals: Male hairless mice (Skh1/Hr, Charles River Laboratories, Wilmington, Mass.), 8-12 weeks old, were fed Purina mouse diet and water ad libitum. […] Functional experiments were performed on animals aged 6-10 weeks.
The mice were anesthetized with chloral hydrate (Morton Grove Pharmaceuticals, Morton Grove, Ill., USA). After 3 hours immersion at 37° C., the mice were removed, and the remaining buffer was gently blotted off. After 15 minutes, barrier function was determined by measurement of transepidermal water loss (TEWL) with an electrolytic water analyzer (MEECO®, Warrington, Pa.). Surface pH was measured with a flat, glass surface electrode from Mettler-Toledo (Giessen, Germany), attached to a pH meter (Skin pH Meter PH 900, Courage & Khazaka, Cologne, Germany). Individually tested sites were covered with Hilltop Chambers (HtC, nominal volume 200 mL), which were reapplied following each indvidual measurement.
The test system of another data set is Murine skin. Conditions: 4 mg/mL topical in propylene glycol:ethanol; cited from earlier work.
For data set [2], the system named is hairless mice skin (stratum corneum). Description: Stratum corneum integrity: TEWL after sequential tape stripping. Type of data set: in vivo, mouse.
Description: The mice were anesthetized with chloral hydrate (Morton Grove Pharmaceuticals, Morton Grove, Ill., USA). […] After 15 minutes, barrier function was determined by measurement of transepidermal water loss (TEWL) with an electrolytic water analyzer (MEECO®, Warrington, Pa.). […] Individually tested sites were covered with Hilltop Chambers (HtC, nominal volume 200 mL), which were reapplied following each indvidual measurement.
The stratum corneum was removed by several strippings with adhesive tape (Tesa, Beiersdorf, Germany) inducing an increase in TEWL rates above baseline (from 0.2 to approximately 7-9 g/m^2/h). Two sites were prepared on each animal, and TEWL and surface pH were measured at 0, 2, 5 and 24 hrs following the stripping and the applications of inhibitors.
Data set [3] deals with desmosomes in the lower stratum corneum. Description: Desmosome density by microscopy and desmoglein-1 immunostaining. Type of data set: in vivo, mouse. Conditions: for density of desmosomes in lower stratum corneum and at SC-SG interface: inhibitor-treated murine skin vs controls. An excerpt: Ultrastructural methods: Freshly obtained biopsies from mouse skin were fixed directly in modified Karnovsky's fixative, postfixed with reduced osmium tetroxide (OS04) and then imbedded in an Epon-epoxy mixture. For visualization of lipid-enriched, lamellar bilayer structures, some samples were post fixed in ruthenium tetroxide (RuO4). Sections were cut on a Reichert Ultracut E microtome, counterstained with uranyl acetate and lead citrate, and viewed in a Zeiss 10 CR electron microscope, operated at 60 kV.
Immunofluorescence Staining: Hairless mouse skin was excised with a 6 mm punch biopsy, and the subcutaneous fat was removed. Tissue sections were incubated for 1 hour in blocking buffer (1% bovine serum albumin, 0.1% cold water fish gelatin in phosphate buffered saline (PBS)), and were then incubated for 1 hour further at room temperature with 1:500 dilution of polyclonal rabbit anti-mouse desmoglein 1 antibody (gift of Dr. John Stanley, University of Pennsylvania) diluted in blocking buffer. The tissue was then washed with blocking buffer and incubated one hour at room temperature with floroscien-labeled, isothiocyanate-conjugated, goat anti-rabbit IgG antibody (DAKO, Carpinteria, Calif., USA), diluted in blocking buffer. Either preincubation of DSG 1 antibody with DSG 1-recombinant protein (gift of Dr. Masayuki Amagai, Keio University, Tokyo, Japan), or omission of the DSG 1 primary antibody eliminated specific staining. Tissue sections then were washed with PBS and coverslipped before visualization under confocal microscope (Leica TCS SP, Heidlberg, Germany) using FITC at an excitation wavelength of 494 nm and an emisson wavelength of 518 nm.
To further investigate the changes in stratum corneum cohesion that are brought about by application of secretory phospholipase A2 inhibitors, BPB and MJ33 treated samples of murine skin and the corresponding untreated controls, were assessed by immunohistochemical staining and confocal microscopy. […]

For data set [4], the system named is hairless mice skin (stratum corneum). Description: Barrier function by transepidermal water loss (TEWL). In kind it is in vivo, mouse. As for the experimental part:
Animals: Male hairless mice (Skh1/Hr, Charles River Laboratories, Wilmington, Mass.), 8-12 weeks old, were fed Purina mouse diet and water ad libitum. […] Each litter was genotyped separately. Functional experiments were performed on animals aged 6-10 weeks.
The mice were anesthetized with chloral hydrate (Morton Grove Pharmaceuticals, Morton Grove, Ill., USA). After 3 hours immersion at 37° C., the mice were removed, and the remaining buffer was gently blotted off. After 15 minutes, barrier function was determined by measurement of transepidermal water loss (TEWL) with an electrolytic water analyzer (MEECO®, Warrington, Pa.). Surface pH was measured with a flat, glass surface electrode from Mettler-Toledo (Giessen, Germany), attached to a pH meter (Skin pH Meter PH 900, Courage & Khazaka, Cologne, Germany). Individually tested sites were covered with Hilltop Chambers (HtC, nominal volume […]), which were reapplied following each indvidual measurement.

Data set [5] has the same test system. Description: Stratum corneum cohesion: protein removed per D-Squame stripping. In kind it is in vivo, mouse. Conditions: after three days of inhibitor treatment alone; vehicle about 5.
Description: Before stripping the stratum corneum, the skin surface was cleaned with a single ethanol wipe. D-Squame tapes then were placed sequentially to the test areas for about 3 sec each, removed with forceps, and stored in glass scintillation vials at 5° C.
The protein content per stripping was determined with the Bio-Rad protein assay kit. […] Each tape was incubated with 1 M NaOH for 1 hour at 37° C. in an incubator shaker at 80 rpm, and neutralized thereafter with 1 mL of 1 M HCl in the scintillation vials. Subsequently, 0.2 mL of this solution was incubated in 0.6 ml distilled water plus 0.2 mL of the Bio-Rad protein dye for 5 minutes in boroscillate tubes. […] An empty D-Squame tape, as well as distilled water incubated with Bio-Rad dye, served as negative controls. The amount of calculated protein was then normalized to skin surface area (μg/cm^2).

Structures are written as SMILES. “And” between values parts separate entries of the source, which are not always exact repeats. Identical values can stand only once.

In the case of `CCCCCCCCCCCCCCCCOCC(COCC(F)(F)F)OP(=O)(O)OC` (stereo not shown) [MJ33, One-hexadecyl-3-triflouroethylglycero-sn-2-phosphomethanol], in data set [1] (MJ33 4 mg/mL topical, vs vehicle 5.60+/-0.05, p=0.0023), the “stratum corneum surface pH” value is 5.87+/−0.06. The “toxicity of the dose employed to Murine skin” value in the data set with Murine skin is reported as “non-toxic”. In data set [2] (day 3 of inhibitor treatment alone, vehicle closer to 40), the “TEWL rate after three consecutive tape strips” value is reported as approximately 75 g/m^2/h. Besides, the “density of desmosomes in lower stratum corneum and at SC-SG interface” value in data set [3] was “dramatic reduction”. Besides, the “fold increase in TEWL rates” value in data set [4] (by day three, vs vehicle) is recorded as 2-3 fold. Moreover, in data set [4] (repeated applications, day three, vs vehicle 2.97+/-0.16, p<0.001), the TEWL rate is given as 5.19+/−0.81.

`O=C(CBr)c1ccc(Br)cc1` [BPB, bromphenacyl bromide]: the “pH of the stratum corneum” value in data set [1] (comparator of the linoleic acid co-application) is on record as 6.28+/−0.1; in data set [1] (comparator of the palmitic acid co-application), 5.92+/−0.05; in data set [1] (comparator of the stearic acid co-application), 6.17+/−0.08. The “pH of the skin” value in data set [1] (hairless mice, 4 mg/mL topical twice daily, after one day, starting value about pH 5.6) was approximately 6.0 pH. The “final average pH of treated sites” value in data set [1] (hairless mice, 4 mg/mL topical twice daily, day 3, vehicle close to pH 5.4) was approximately 6.4 pH. For the same compound, the “toxicity of the dose employed to Murine skin” value in the data set on Murine skin is “non-toxic”. Also, the “protein removed, first D-Squame strip” value in data set [5] is given as “about 20 μg/cm^2”. Further, the “TEWL rate after fifth tape strip” value in data set [2] (after three days of inhibitor treatment alone, vehicle close to 25) was ~90 g/m^2/h and 80-100 g/m^2/h. In addition, in data set [2] (after three days of inhibitor treatment alone, vehicle closer to 5), the “TEWL rate after second tape strip” value is given as approximately 20 g/m^2/h. The “density of desmosomes in lower stratum corneum and at SC-SG interface” value in data set [3] is listed as “dramatic reduction”. Moreover, the “density of DSG1 positive clusters” value in data set [3] (laser confocal microscopy, treated vs vehicle stratum corneum) is reported as “decline dramatically”. Moreover, the TEWL rate in data set [4] (4 mg/mL topical twice daily, day 2, vehicle closer to 2.5) was approximately 6 g/m^2/h; in data set [4] (4 mg/mL topical twice daily, day three, vehicle near 3), approximately 11 g/m^2/h.
